ChEMBL document CHEMBL4184333, “Expanding Benzoxazole-Based Inosine 5'-Monophosphate Dehydrogenase (IMPDH) Inhibitor Structure-Activity As Potential Antituberculosis Agents” (J Med Chem, 2018)
≈ marks a conversion by molar mass, not a printed value. Calls of active or inactive are those of the source. The calls are words filed in the database; no cut-off is given here.

Test system: not listed separately
Test: Half life in mouse liver microsomes in absence of NADPH
Type: ADME, microsome
Details: not given

| Compound | t1/2 [min] |
| --- | --- |
| C[C@H](Oc1cccc(Cl)c1Cl)C(=O)Nc1ccc2oc(-c3ccc(OCC(=O)O)cc3)nc2c1 | 23 |
| CCOC(=O)COc1ccc(-c2nc3cc(NC(=O)[C@H](C)Oc4cccc(Cl)c4Cl)ccc3o2)cc1 | 1.3 |

Test system: HeLa
Test: Cytotoxicity against human HeLa cells assessed as LDH release at 25 uM after 24 hrs relative to control
Type: cell-based
Details: not given

| Compound | Activity [%] |
| --- | --- |
| C[C@H](Nc1cccc(F)c1F)C(=O)Nc1ccc2oc(-c3ccc(C#N)cc3)nc2c1 | < 10 |

Test system: not listed separately
Test: Tmax in mouse at 20 mg/kg, po
Type: ADME, organism-based
Details: in vivo

| Compound | Tmax [min] |
| --- | --- |
| C[C@H](Nc1cccc(F)c1F)C(=O)Nc1ccc2oc(-c3ccc(C#N)cc3)nc2c1 | 30 |

Test system: Mycobacterium tuberculosis
Test: Antitubercular activity against Mycobacterium tuberculosis H37Rv ATCC 27294 using GAST/Fe medium after 1 week in presence of guanine by broth microdilution method
Type: functional
Details: H37Rv ATCC 27294, 168 h

| Compound | MIC [µM] |
| --- | --- |
| C[C@H](Nc1cccc(Cl)c1Cl)C(=O)Nc1ccc2oc(-c3ccc(C#N)cc3)nc2c1 | 13 |
| C[C@H](Oc1cccc(Cl)c1Cl)C(=O)Nc1ccc2oc(-c3ccc(OCC(=O)O)cc3)nc2c1 | 4 |
| CCOC(=O)COc1ccc(-c2nc3cc(NC(=O)[C@H](C)Oc4cccc(Cl)c4Cl)ccc3o2)cc1 | 0.5 |
| C[C@H](Nc1cccc(F)c1F)C(=O)Nc1ccc2oc(-c3ccc(C#N)cc3)nc2c1 | 6 |

Test system: MCF7
Test: Cytotoxicity against human MCF7 cells assessed as LDH release at 25 uM after 24 hrs relative to control
Type: cell-based
Details: mcf7, 24 h

| Compound | Activity [%] |
| --- | --- |
| C[C@H](Nc1cccc(F)c1F)C(=O)Nc1ccc2oc(-c3ccc(C#N)cc3)nc2c1 | < 10 |

Test system: Mycobacterium tuberculosis
Test: Antitubercular activity against Mycobacterium tuberculosis H37Rv ATCC 27294 using 7H9/ADC/Tween medium after 1 week in absence of guanine by broth microdilution method
Type: functional
Details: H37Rv ATCC 27294, 168 h

| Compound | MIC [µM] |
| --- | --- |
| C[C@H](Nc1cccc(Cl)c1Cl)C(=O)Nc1ccc2oc(-c3ccc(C#N)cc3)nc2c1 | 3 (≈ 1.35 µg/mL) |
| C[C@H](Oc1cccc(Cl)c1Cl)C(=O)Nc1ccc2oc(-c3ccc(OCC(=O)O)cc3)nc2c1 | 9 (≈ 4.51 µg/mL) |
| CCOC(=O)COc1ccc(-c2nc3cc(NC(=O)[C@H](C)Oc4cccc(Cl)c4Cl)ccc3o2)cc1 | 0.2 to 3.1 (≈ 0.106 to 1.64 µg/mL) |
| C[C@H](Nc1cccc(F)c1F)C(=O)Nc1ccc2oc(-c3ccc(C#N)cc3)nc2c1 | 1 to 3.1 (≈ 0.418 to 1.3 µg/mL) |

Test system: HepG2
Test: Cytotoxicity against human HepG2 cells assessed as LDH release at 25 uM after 24 hrs relative to control
Type: cell-based
Details: hepg2, 24 h

| Compound | Activity [%] |
| --- | --- |
| C[C@H](Nc1cccc(F)c1F)C(=O)Nc1ccc2oc(-c3ccc(C#N)cc3)nc2c1 | 9 to 13 |

Test system: not listed separately
Test: Protein binding in mouse serum at 20 mg/kg, po
Type: ADME, organism-based
Details: read-out: PB

| Compound | fraction unbound |
| --- | --- |
| C[C@H](Nc1cccc(F)c1F)C(=O)Nc1ccc2oc(-c3ccc(C#N)cc3)nc2c1 | < 0.01 |

Test system: not listed separately
Test: Elimination half life in mouse plasma at 20 mg/kg, po
Type: ADME, organism-based
Details: read-out: beta t1/2 (converted)

| Compound | half-life [min] |
| --- | --- |
| C[C@H](Nc1cccc(F)c1F)C(=O)Nc1ccc2oc(-c3ccc(C#N)cc3)nc2c1 | 300 |

Test system: not listed separately
Test: Drug metabolism in mouse plasma after 2 hrs
Type: ADME, cell-free
Details: not given

| Compound | Drug metabolism |
| --- | --- |
| C[C@H](Nc1cccc(F)c1F)C(=O)Nc1ccc2oc(-c3ccc(C#N)cc3)nc2c1 | Metabolite_Notdetected |

Test system: not listed separately
Test: (§1) Cytotoxicity against human HepG2 cells after 24 hrs by LDH release assay
Type: cell-based
Details: HepG2 cells, read-out: LD50

| Compound | CC50 at 24 h [µM] |
| --- | --- |
| C[C@H](Nc1cccc(F)c1F)C(=O)Nc1ccc2oc(-c3ccc(C#N)cc3)nc2c1 | > 25 |

Test system: HepG2
Test: as §1
Type: cell-based
Details: hepg2, 24 h

| Compound | Activity |
| --- | --- |
| CCOC(=O)COc1ccc(-c2nc3cc(NC(=O)[C@H](C)Oc4cccc(Cl)c4Cl)ccc3o2)cc1 | Non-Toxic |

Test system: Mycobacterium tuberculosis
Test: Antitubercular activity against Mycobacterium tuberculosis H37Rv ATCC 27294 using GAST/Fe medium after 1 week in absence of guanine by broth microdilution method
Type: functional
Details: H37Rv ATCC 27294, 168 h

| Compound | MIC [µM] |
| --- | --- |
| C[C@H](Nc1cccc(Cl)c1Cl)C(=O)Nc1ccc2oc(-c3ccc(C#N)cc3)nc2c1 | 4 (≈ 1.81 µg/mL) |
| C[C@H](Oc1cccc(Cl)c1Cl)C(=O)Nc1ccc2oc(-c3ccc(OCC(=O)O)cc3)nc2c1 | 2 (≈ 1 µg/mL) |
| CCOC(=O)COc1ccc(-c2nc3cc(NC(=O)[C@H](C)Oc4cccc(Cl)c4Cl)ccc3o2)cc1 | 0.4 (≈ 0.212 µg/mL) |
| C[C@H](Nc1cccc(F)c1F)C(=O)Nc1ccc2oc(-c3ccc(C#N)cc3)nc2c1 | 2 (≈ 0.837 µg/mL) |

Biological target: Inosine-5'-monophosphate dehydrogenase 2 (Homo sapiens, UniProt P12268)
Test: Inhibition of human IMPDH2 using IMP as substrate by spectrophotometric method
Details: read-out: Ki(app)

| Compound | Ki [µM] |
| --- | --- |
| C[C@H](Nc1cccc(Cl)c1Cl)C(=O)Nc1ccc2oc(-c3ccc(C#N)cc3)nc2c1 | 3.3 |
| C[C@H](Oc1cccc(Cl)c1Cl)C(=O)Nc1ccc2oc(-c3ccc(OCC(=O)O)cc3)nc2c1 | > 5 |
| CCOC(=O)COc1ccc(-c2nc3cc(NC(=O)[C@H](C)Oc4cccc(Cl)c4Cl)ccc3o2)cc1 | > 5 |
| C[C@H](Nc1cccc(F)c1F)C(=O)Nc1ccc2oc(-c3ccc(C#N)cc3)nc2c1 | > 5 |

Test system: not listed separately
Test: Cmax in mouse at 20 mg/kg, po
Type: ADME, organism-based
Design: dose 20 mg/kg, route oral
Details: in vivo

| Compound | Cmax [nM] |
| --- | --- |
| C[C@H](Nc1cccc(F)c1F)C(=O)Nc1ccc2oc(-c3ccc(C#N)cc3)nc2c1 | 3000 |

Test system: Mycobacterium tuberculosis
Test: Antitubercular activity against Mycobacterium tuberculosis H37Rv ATCC 27294 using GAST/Fe medium after 2 weeks in absence of guanine by broth microdilution method
Type: functional, organism-based
Details: not given

| Compound | Activity |
| --- | --- |
| C[C@H](Nc1cccc(Cl)c1Cl)C(=O)Nc1ccc2oc(-c3ccc(C#N)cc3)nc2c1 | Active |
| CCOC(=O)COc1ccc(-c2nc3cc(NC(=O)[C@H](C)Oc4cccc(Cl)c4Cl)ccc3o2)cc1 | Active |
| C[C@H](Nc1cccc(F)c1F)C(=O)Nc1ccc2oc(-c3ccc(C#N)cc3)nc2c1 | Active |

Biological target: T1, GMP reductase 2 (Homo sapiens, UniProt Q9P2T1)
T1 sequence (Q9P2T1 whole entry): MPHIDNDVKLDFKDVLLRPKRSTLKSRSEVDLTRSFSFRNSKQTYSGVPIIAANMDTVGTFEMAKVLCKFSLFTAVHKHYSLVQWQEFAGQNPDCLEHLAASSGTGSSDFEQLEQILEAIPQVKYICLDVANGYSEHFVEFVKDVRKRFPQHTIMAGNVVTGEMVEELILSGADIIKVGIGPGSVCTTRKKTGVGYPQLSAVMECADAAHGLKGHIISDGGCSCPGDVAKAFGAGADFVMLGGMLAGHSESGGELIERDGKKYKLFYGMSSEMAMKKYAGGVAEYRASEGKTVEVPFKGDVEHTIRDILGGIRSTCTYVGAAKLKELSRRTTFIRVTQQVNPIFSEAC
Test: Inhibition of human GMPR2 using GMP as substrate by spectrophotometric method
Details: read-out: Ki(app)

| Compound | Ki [µM] |
| --- | --- |
| C[C@H](Nc1cccc(Cl)c1Cl)C(=O)Nc1ccc2oc(-c3ccc(C#N)cc3)nc2c1 | > 5 |
| C[C@H](Oc1cccc(Cl)c1Cl)C(=O)Nc1ccc2oc(-c3ccc(OCC(=O)O)cc3)nc2c1 | > 5 |
| CCOC(=O)COc1ccc(-c2nc3cc(NC(=O)[C@H](C)Oc4cccc(Cl)c4Cl)ccc3o2)cc1 | > 5 |
| C[C@H](Nc1cccc(F)c1F)C(=O)Nc1ccc2oc(-c3ccc(C#N)cc3)nc2c1 | > 5 |

Test system: Mycobacterium tuberculosis
Test: Antitubercular activity against Mycobacterium tuberculosis H37Rv ATCC 27294 using 7H9/ADC/Tween medium after 1 week in presence of guanine by broth microdilution method
Type: functional
Details: H37Rv ATCC 27294, 168 h

| Compound | MIC [µM] |
| --- | --- |
| C[C@H](Nc1cccc(Cl)c1Cl)C(=O)Nc1ccc2oc(-c3ccc(C#N)cc3)nc2c1 | 6 |
| C[C@H](Oc1cccc(Cl)c1Cl)C(=O)Nc1ccc2oc(-c3ccc(OCC(=O)O)cc3)nc2c1 | 20 |
| CCOC(=O)COc1ccc(-c2nc3cc(NC(=O)[C@H](C)Oc4cccc(Cl)c4Cl)ccc3o2)cc1 | 0.23 |
| C[C@H](Nc1cccc(F)c1F)C(=O)Nc1ccc2oc(-c3ccc(C#N)cc3)nc2c1 | 1.4 |

Test system: Mycobacterium tuberculosis
Test: Antitubercular activity against Mycobacterium tuberculosis H37Rv ATCC 27294 using 7H9/ADC/Tween medium after 2 weeks in absence of guanine by broth microdilution method
Type: functional, organism-based
Details: not given

| Compound | Activity |
| --- | --- |
| C[C@H](Nc1cccc(Cl)c1Cl)C(=O)Nc1ccc2oc(-c3ccc(C#N)cc3)nc2c1 | Active |
| CCOC(=O)COc1ccc(-c2nc3cc(NC(=O)[C@H](C)Oc4cccc(Cl)c4Cl)ccc3o2)cc1 | Active |
| C[C@H](Nc1cccc(F)c1F)C(=O)Nc1ccc2oc(-c3ccc(C#N)cc3)nc2c1 | Active |

Test system: not listed separately
Test: Half life in mouse liver microsomes in presence of NADPH
Type: ADME, microsome
Details: not given

| Compound | t1/2 [min] |
| --- | --- |
| C[C@H](Nc1cccc(F)c1F)C(=O)Nc1ccc2oc(-c3ccc(C#N)cc3)nc2c1 | 26 |

Test system: Mycobacterium tuberculosis
Test: Antitubercular activity against Mycobacterium tuberculosis H37Rv ATCC 27294 using 7H9/ADC/Tween medium after 1 week in absence of guanine and presence of anhydrotetracycline by Alamar blue assay
Type: functional
Details: H37Rv ATCC 27294, 168 h

| Compound | MIC [µM] |
| --- | --- |
| C[C@H](Nc1cccc(F)c1F)C(=O)Nc1ccc2oc(-c3ccc(C#N)cc3)nc2c1 | 3.1 |

Test system: HEK-293T
Test: Cytotoxicity against human HEK293T cells assessed as LDH release at 25 uM after 24 hrs relative to control
Type: cell-based
Details: not given

| Compound | Activity [%] |
| --- | --- |
| C[C@H](Nc1cccc(F)c1F)C(=O)Nc1ccc2oc(-c3ccc(C#N)cc3)nc2c1 | < 10 |
